From patent publication US20160115540A1, “PRODRUGS AND DRUGS” (Biogen MA Inc., priority 2013, published 2016)
Where a name gives a salt, the structure may show the parent alone.

Test system: jejunum
Assay: Transcriptional profiling on Affymetrix GeneChips, single dose, naïve mice: jejunum
Type: in vivo, C57BL/6 mice
Description: Treated mice were sacrificed at 2, 7, or 12 hours. Tissues (liver, spleen, kidney, jejunum, cortex, hippocampus, striatum and whole blood) were collected and analyzed by transcriptional profiling on mouse Affymetrix GeneChips.
Tissues (liver, spleen, kidney, jejunum, cortex, hippocampus, striatum and whole blood) were collected and analyzed by transcriptional profiling on mouse Affymetrix GeneChips.
Animals were exposed to CO2 and whole blood collected via cardiac puncture. Two 100 μl aliquots of whole blood were collected in 1.5 mL microcentrifuge tubes and snap frozen in liquid nitrogen. Peripheral (liver, spleen, kidney and jejunum) and CNS brain (cerebellum, hippocampus, striatum and cortex) tissues were harvested and snap frozen in liquid nitrogen, with special care taken to collect tissues of similar size and from the same location. All samples were stored at −80° C. until RNA extraction was conducted.
For RNA preparation, frozen tissues were placed in 2 mL RNAse-free 96-well blocks with 1.5 mL QIAzol Lysis Reagent (QIAgen) and a 3.2 mm stainless steel bead (BioSpec Products, Bartlesville, Okla.). Tissues were disrupted for four cycles of 45 seconds in a Mini-Beadbeater (Biospec Products). RNA was extracted in chloroform and the aqueous phase was mixed with an equal volume of 70% ethanol. Extracted RNA was applied to RNeasy 96 plates and purified by the spin method according to the manufacturer's protocol (RNeasy 96 Universal Tissue Protocol, QIAgen, Hilden Germany).
Automated sample amplifications and biotin labelings were carried out using the NuGEN Ovation RNA Amplification system V2 (Cat #3100), Ovation WB reagent (Cat #1300) and Encore Biotin module (Cat #4200) (NuGEN Technologies, Inc, San Carlos, Calif.) according to manufacturer's recommendations using an Arrayplex automated liquid handler (Beckman Coulter, Indianapolis, Ind.). Two micrograms of biotin labeled sscDNA probe were hybridized to Affymetrix GeneChip Affymetrix HT_MG-430_PM plate arrays with modified conditions as described in Allaire et al. Washing and staining of the hybridized arrays were completed as described in the GeneChip Expression analysis technical manual for HT plate arrays using the Genechip® Array Station (Affymetrix, Santa Clara, Calif.) with modifications as described in Allaire et al. The processed GeneChip® plate arrays were scanned using GeneTitan scanner (Affymetrix, Santa Clara, Calif.).
Affymetrix scans were subject to quality control (QC) measures. These tests included a visual inspection of the distribution of raw signal intensities and an assessment of RNA degradation, relative log expression (RLE), and normalized unsealed standard error (NUSE). All sample scans that passed these QC metrics were included in the analysis.
All CEL files were subjected to GC-content-based Robust Multi-array Average (GCRMA) normalization (version 2.20.0) (Irizarry R A, et al. Nucleic Acids Res 2003; 31:e15; Li C, et al. Genome Biol 2001; 2:[…]0032). Expression levels were log (base 2) transformed.
All calculations and analyses were carried out using R (version 2.11.1) and Bioconductor computational tools (Gentleman R. Springer Science+Business Media 2005).

SMILES: COC(=O)/C=C/C(=O)O [MMF, monomethyl fumarate]
- FC Akr1c12 (1422000_PM_at) (100MMF-vs-Veh, 12 h): 1.52
- FC Akr1c13 (1418672_PM_at) (100MMF-vs-Veh, 12 h): 2.01
- FC Aldh1a7 (1418601_PM_at) (100MMF-vs-Veh, 12 h): 1.74
- FC Apob (1457554_PM_at) (100MMF-vs-Veh, 12 h): −1.54
- FC C030026M15Rik (1431418_PM_at) (100MMF-vs-Veh, 12 h): −1.81
- FC Dio1 (1417991_PM_at) (100MMF-vs-Veh, 12 h): −1.51
- FC Ephx1 (1422438_PM_at) (100MMF-vs-Veh, 12 h): 2.17
- FC Gss (1448273_PM_at) (100MMF-vs-Veh, 12 h): 1.57
- FC Gstm1 (1416416_PM_x_at) (100MMF-vs-Veh, 12 h): 3.70
- FC Gstm2 (1416411_PM_at) (100MMF-vs-Veh, 12 h): 2.20
- FC Kif1b (1451642_PM_at) (100MMF-vs-Veh, 12 h): −1.51
- Number of genes, DMF Only / MMF Only (Jejunum): 35
- 6-Sep, septin 6 (1424181_PM_at) differential expression (Jejunum, 2 hr): 1.56
- Areg (1421134_PM_at) differential expression (Jejunum, 2 hr): 2.71
- Blvrb (1451386_PM_at) differential expression (Jejunum, 2 hr): 1.57
- Bmp2 (1423635_PM_at) differential expression (Jejunum, 2 hr): −1.55
- Cbr1 (1460196_PM_at) differential expression (Jejunum, 2 hr): 1.53
- Dnase2a (1430135_PM_at) differential expression (Jejunum, 2 hr): 1.79
- Dppa5a (1416552_PM_at) differential expression (Jejunum, 2 hr): 2.64
- Ereg (1419431_PM_at) differential expression (Jejunum, 2 hr): 2.00
- Ero1l (1419030_PM_at) differential expression (Jejunum, 2 hr): 1.90
- Esd (1441604_PM_at) differential expression (Jejunum, 2 hr): 1.52
- Figf (1438953_PM_at) differential expression (Jejunum, 2 hr): 1.63
- G6pd2 /// G6pdx (1422327_PM_s_at) differential expression (Jejunum, 2 hr): 1.74
- Gabarapl1 (1416418_PM_at) differential expression (Jejunum, 2 hr): 1.52
- Gclc (1424296_PM_at) differential expression (Jejunum, 2 hr): 3.99
- Gsr (1421816_PM_at) differential expression (Jejunum, 2 hr): 2.19
- Gss (1441931_PM_x_at) differential expression (Jejunum, 2 hr): 1.92
- Gsta3 (1423436_PM_at) differential expression (Jejunum, 2 hr): 3.64
- Gsta4 (1416368_PM_at) differential expression (Jejunum, 2 hr): 1.73
- Gstm1 (1416416_PM_x_at) differential expression (Jejunum, 2 hr): 2.38
- Hfe (1422645_PM_at) differential expression (Jejunum, 2 hr): 1.73
- Hmox1 (1448239_PM_at) differential expression (Jejunum, 2 hr): 1.81
- Htatip2 (1451814_PM_a_at) differential expression (Jejunum, 2 hr): 1.53
- Lpin2 (1452837_PM_at) differential expression (Jejunum, 2 hr): 1.61
- Lrp8 (1440882_PM_at) differential expression (Jejunum, 2 hr): 2.23
- Mafg (1448916_PM_at) differential expression (Jejunum, 2 hr): 1.95
- Nqo1 (1423627_PM_at) differential expression (Jejunum, 2 hr): 2.16
- Osgin1 (1424022_PM_at) differential expression (Jejunum, 2 hr): 1.98
- Pgm2 (1437240_PM_at) differential expression (Jejunum, 2 hr): 2.09
- Prr5l (1452834_PM_at) differential expression (Jejunum, 2 hr): −1.64
- Prss8 (1418320_PM_at) differential expression (Jejunum, 2 hr): 2.41
- Setd4 (1435405_PM_at) differential expression (Jejunum, 2 hr): 2.11
- Slc2a1 (1426600_PM_at) differential expression (Jejunum, 2 hr): 1.68
- Slc40a1 (1417061_PM_at) differential expression (Jejunum, 2 hr): 2.73
- Slc48a1 (1450410_PM_a_at) differential expression (Jejunum, 2 hr): 1.62
- Slfn2 (1450165_PM_at) differential expression (Jejunum, 2 hr): −1.82
- Sos1 (1421886_PM_at) differential expression (Jejunum, 2 hr): −1.57
- Srxn1 (1425351_PM_at) differential expression (Jejunum, 2 hr): 1.77
- St3gal6 (1449078_PM_at) differential expression (Jejunum, 2 hr): 1.52
- Tkt (1436605_PM_at) differential expression (Jejunum, 2 hr): 1.73
- Tnfaip3 (1433699_PM_at) differential expression (Jejunum, 2 hr): −1.67
- Tox3 (1436600_PM_at) differential expression (Jejunum, 2 hr): 1.81
- Ugt2b5 (1419622_PM_at) differential expression (Jejunum, 2 hr): 3.13
- Abcc2 (1450109_PM_s_at) differential expression (Jejunum, 7 hr): 1.51
- Abcc3 (1428988_PM_at) differential expression (Jejunum, 7 hr): 2.26
- Acsm5 (1437662_PM_at) differential expression (Jejunum, 7 hr): 1.71
- Akr1c12 /// Akr1c13 (1450455_PM_s_at) differential expression (Jejunum, 7 hr): 1.58
- Akr1c13 (1418672_PM_at) differential expression (Jejunum, 7 hr): 1.86
- Aldh1a7 (1418601_PM_at) differential expression (Jejunum, 7 hr): 1.86
- Areg (1421134_PM_at) differential expression (Jejunum, 7 hr): 2.93
- Asns (1451095_PM_at) differential expression (Jejunum, 7 hr): 1.60
- Blvrb (1451386_PM_at) differential expression (Jejunum, 7 hr): 1.55
- Capn13 (1437960_PM_at) differential expression (Jejunum, 7 hr): −1.75
- Cbr1 (1460196_PM_at) differential expression (Jejunum, 7 hr): 1.83
- Ces1e (1419510_PM_at) differential expression (Jejunum, 7 hr): 2.44
- Ddc (1426215_PM_at) differential expression (Jejunum, 7 hr): 2.03
- Dppa5a (1416552_PM_at) differential expression (Jejunum, 7 hr): 1.88
- Enkur (1428960_PM_at) differential expression (Jejunum, 7 hr): −1.56
- Entpd5 (1433763_PM_at) differential expression (Jejunum, 7 hr): 1.60
- Esd (1441604_PM_at) differential expression (Jejunum, 7 hr): 2.15
- Fam162a (1451385_PM_at) differential expression (Jejunum, 7 hr): 1.67
- G6pd2 /// G6pdx (1422327_PM_s_at) differential expression (Jejunum, 7 hr): 2.06
- G6pdx (1448354_PM_at) differential expression (Jejunum, 7 hr): 1.76
- Gclc (1424296_PM_at) differential expression (Jejunum, 7 hr): 2.87
- Gm3776 /// Gsta1 /// Gsta2 (1421041_PM_s_at) differential expression (Jejunum, 7 hr): 1.90
- Gm14446 (1435529_PM_at) differential expression (Jejunum, 7 hr): −1.65
- Gpx2 (1449279_PM_at) differential expression (Jejunum, 7 hr): 1.53
- Gsr (1421816_PM_at) differential expression (Jejunum, 7 hr): 3.13
- Gss (1441931_PM_x_at) differential expression (Jejunum, 7 hr): 2.20
- Gsta3 (1423436_PM_at) differential expression (Jejunum, 7 hr): 5.71
- Gsta4 (1416368_PM_at) differential expression (Jejunum, 7 hr): 2.52
- Gstm1 (1416416_PM_x_at) differential expression (Jejunum, 7 hr): 4.80
- Gstm2 (1416411_PM_at) differential expression (Jejunum, 7 hr): 2.09
- Gstm4 (1424835_PM_at) differential expression (Jejunum, 7 hr): 5.75
- Gstm6 (1422072_PM_a_at) differential expression (Jejunum, 7 hr): 2.23
